Source: article PMC9127750, “Structure-based design of CDC42 effector interaction inhibitors for the treatment of cancer” (Cell reports, 2022)
Where “and” joins values, the source holds several entries; their conditions need not be identical. Equal values may be shown once.

System: WM3248 melanoma cells, 486 antibodies
Assay: Reverse phase protein arrays (RPPA)
Assay type: cell-based, Human
From the text: Pellets were snap frozen in liquid nitrogen and shipped to MD Anderson Cancer Center core RPPA facility for RPPA analysis (Table S5). Three biological replicates for each sample were generated.
Nomenclatures on the RPPA heatmaps: name_of_antibody.species_of_antibody.status_of_antibody. V - antibody validated; C - validation of antibody in progress; Q - antibody nonspecific; E – under evaluation; antibodies raised in M - mouse, G - goat, R - rabbit, or T - rat.

[1] = level 5 normalized to 0, mean of 3
[2] = level 5 normalized to 0, single replicates

SMILES: CN(C)c1cccc(Nc2cc(-c3ccccc3)nc(C3CCNCC3)n2)c1 [ARN22089, N1,N1-dimethyl-N3-(6-phenyl-2-(piperidin-4-yl)pyrimidin-4-yl)benzene-1,3-diamine]
- S6 phosphorylation at serine 235/236 and 240/244 (RPPA) (WM3248, 6 h, 10 and 20 μM): inhibit S6 phosphorylation
- number of proteins with significantly influenced phosphorylation (RPPA) (WM3248, 6 h, 10 and/or 20 μM): 10
- number of proteins with significantly influenced abundance (RPPA) (WM3248, 6 h, 10 and/or 20 μM, 486 antibodies): 38
- TSC1.R.C Norm_5 Average [1]: 1.102
- TTF1.R.V Norm_5 Average [1]: 1.049
- TUFM.R.V Norm_5 Average [1]: 0.868
- Tuberin_pT1462.R.V Norm_5 Average [1]: 0.977
- Twist.M.C Norm_5 Average [1]: 0.950
- Tyro3.R.V Norm_5 Average [1]: 1.005
- U.Histone.H2B.R.C Norm_5 Average [1]: 1.142
- UBAC1.R.V Norm_5 Average [1]: 0.993
- UBQLN4.M.C Norm_5 Average [1]: 1.016
- ULK1_pS757.R.C Norm_5 Average [1]: 1.079
- UQCRC2.M.C Norm_5 Average [1]: 0.979
- UVRAG.R.C Norm_5 Average [1]: 1.020
- VASP.R.V Norm_5 Average [1]: 0.994
- VAV1.R.C Norm_5 Average [1]: 1.019
- VEGFR.2.R.V Norm_5 Average [1]: 1.081
- VEGFR.2_pY1175.R.C Norm_5 Average [1]: 0.910
- VHL.R.C Norm_5 Average [1]: 0.932
- Vinculin.M.V Norm_5 Average [1]: 1.019
- WIPI1.R.C Norm_5 Average [1]: 1.058
- WIPI2.R.C Norm_5 Average [1]: 1.061
- WTAP.R.V Norm_5 Average [1]: 0.959
- Wee1.R.C Norm_5 Average [1]: 1.054
- Wee1_pS642.R.C Norm_5 Average [1]: 0.993
- XBP.1.G.C Norm_5 Average [1]: 0.977
- XIAP.R.C Norm_5 Average [1]: 1.035
- XPA.M.V Norm_5 Average [1]: 0.929
- XPF.R.C Norm_5 Average [1]: 0.943
- XRCC1.R.C Norm_5 Average [1]: 0.946
- YAP.R.C Norm_5 Average [1]: 0.953
- YAP_pS127.R.V Norm_5 Average [1]: 0.906
- YB1_pS102.R.V Norm_5 Average [1]: 0.961
- YES1.R.V Norm_5 Average [1]: 0.962
- YTHDF2.R.V Norm_5 Average [1]: 1.076
- YTHDF3.R.C Norm_5 Average [1]: 0.987
- ZAP.70.R.V Norm_5 Average [1]: 0.952
- ZEB1.R.V Norm_5 Average [1]: 0.892
- TSC1.R.C Norm_5_1 to Norm_5_3 [2]: 1.060 and 1.024 and 1.221
- TTF1.R.V Norm_5_1 to Norm_5_3 [2]: 1.035 and 1.145 and 0.966
- TUFM.R.V Norm_5_1 to Norm_5_3 [2]: 0.845 and 0.669
- Tuberin.R.V Norm_5_1 to Norm_5_3 [2]: 1.052 and 1.301
- Tuberin_pT1462.R.V Norm_5_1 to Norm_5_3 [2]: 0.994 and 0.956 and 0.983
- Twist.M.C Norm_5_1 to Norm_5_3 [2]: 0.898 and 0.964 and 0.990
- Tyro3.R.V Norm_5_1 to Norm_5_3 [2]: 1.008 and 1.152 and 0.855
- U.Histone.H2B.R.C Norm_5_1 to Norm_5_3 [2]: 1.497 and 1.118 and 0.811
- UBAC1.R.V Norm_5_1 to Norm_5_3 [2]: 0.966 and 1.139 and 0.875
- UBQLN4.M.C Norm_5_1 to Norm_5_3 [2]: 0.962 and 1.147
- UGT1A.M.V Norm_5_1 to Norm_5_3 [2]: 0.962 and 0.965 and 0.979
- ULK1_pS757.R.C Norm_5_1 to Norm_5_3 [2]: 0.993 and 1.063
- UQCRC2.M.C Norm_5_1 to Norm_5_3 [2]: 0.997 and 1.139 and 0.800
- UVRAG.R.C Norm_5_1 to Norm_5_3 [2]: 1.096 and 0.960 and 1.005
- VASP.R.V Norm_5_1 to Norm_5_3 [2]: 1.053 and 0.992
- VAV1.R.C Norm_5_1 to Norm_5_3 [2]: 1.027 and 0.961
- VEGFR.2.R.V Norm_5_1 to Norm_5_3 [2]: 0.985 and 1.166
- VEGFR.2_pY1175.R.C Norm_5_1 to Norm_5_3 [2]: 0.849 and 0.870 and 1.011
- VHL.EPPK1.M.C Norm_5_1 to Norm_5_3 [2]: 0.542 and 1.028 and 0.909
- VHL.R.C Norm_5_1 to Norm_5_3 [2]: 0.928 and 0.903 and 0.966
- Vinculin.M.V Norm_5_1 to Norm_5_3 [2]: 0.942 and 1.027
- WIPI1.R.C Norm_5_1 to Norm_5_3 [2]: 1.134 and 1.302 and 0.738
- WIPI2.R.C Norm_5_1 to Norm_5_3 [2]: 1.104 and 0.916 and 1.163
- WTAP.R.V Norm_5_1 to Norm_5_3 [2]: 0.932 and 0.904
- Wee1.R.C Norm_5_1 to Norm_5_3 [2]: 0.867 and 1.101 and 1.195
- Wee1_pS642.R.C Norm_5_1 to Norm_5_3 [2]: 0.917 and 0.940 and 1.121
- XBP.1.G.C Norm_5_1 to Norm_5_3 [2]: 0.957 and 1.060 and 0.914
- XIAP.R.C Norm_5_1 to Norm_5_3 [2]: 1.060 and 0.982 and 1.062
- XPA.M.V Norm_5_1 to Norm_5_3 [2]: 0.895 and 0.876 and 1.017
- XPF.R.C Norm_5_1 to Norm_5_3 [2]: 0.932 and 0.922 and 0.975
- XRCC1.R.C Norm_5_1 to Norm_5_3 [2]: 0.894 and 1.030 and 0.916
- YAP.R.C Norm_5_1 to Norm_5_3 [2]: 0.937 and 0.945 and 0.977
- YAP_pS127.R.V Norm_5_1 to Norm_5_3 [2]: 0.985 and 0.903 and 0.830
- YB1_pS102.R.V Norm_5_1 to Norm_5_3 [2]: 0.906
- YES1.R.V Norm_5_1 to Norm_5_3 [2]: 0.963 and 1.014 and 0.910
- YTHDF2.R.V Norm_5_1 to Norm_5_3 [2]: 1.138 and 1.217 and 0.872
- YTHDF3.R.C Norm_5_1 to Norm_5_3 [2]: 1.049 and 0.875
- ZAP.70.R.V Norm_5_1 to Norm_5_3 [2]: 0.889 and 1.054
- ZEB1.R.V Norm_5_1 to Norm_5_3 [2]: 0.816 and 0.893 and 0.967
- HLA.DQA1.R.V Norm_5 Average (level 5 vs 0): 0.908
- HLA.DR.DP.DQ.DX.R.C Norm_5 Average (level 5 vs 0): 0.994
- HSP27.M.C Norm_5 Average (level 5 vs 0): 0.932
